Among the data in PubChem BioAssay AID977613 (Broad Institute, 2014) are active concentration values, retold here.

The source made the active and inactive calls. The rule behind the calls is not given here. A value given as a limit tells only on which side of the number the result lay.

In this experiment the test system is Broad 7084-01 inhibitor HTS, set 2. As to the kind of experiment: single-concentration hits, screen 7084 set 2 (AID 977613).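 Note: host cells are infected with parasite promastigotes that become internalized.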
For `O=S(=O)(c1ccccc1F)N1CC[C@@H]2[C@H]1c1cc(-c3ccccc3F)ccc1N[C@@H]2CO`, the active concentration is > 10 µM (inactive). In the case of `O=C(C[C@@H]1CC[C@@H]2[C@H](COC[C@H](O)CN2C(=O)Nc2cc(Cl)cc(Cl)c2)O1)NCC1CCCCC1` it was > 10 µM (inactive); in that of `COc1ccccc1CN1[C@@H]2c3ccc(C4=CCCC4)c(=O)n3C[C@H]1[C@H](CO)[C@H]2C(=O)N(C)C`, > 10 µM (inactive); in that of `C/C=C/c1ccc([C@@H]2[C@H](CO)N(CC3CCOCC3)C23CN(S(=O)(=O)CC)C3)cc1`, > 10 µM (inactive). The value for `CN1C(=O)c2cc(NS(C)(=O)=O)ccc2OC[C@@H]2O[C@@H](CC(=O)NC3CCCCC3)CC[C@H]21` was > 10 µM (inactive); that for `CCCNC(=O)N1[C@H](CO)[C@@H](c2ccccc2C2=CCCCC2)[C@@H]1C#N` was > 10 µM (inactive). Turning to `COC(=O)C[C@H]1CC[C@@H]2[C@H](COc3ccc(NC(=O)c4cccc(Cl)c4)cc3C(=O)N2C)O1`, the active concentration was > 10 µM (inactive). The value for `CCS(=O)(=O)Nc1ccc2c(c1)C(=O)N(C)[C@H]1CC[C@H](CC(=O)N[C@@H]3CCN(Cc4ccccc4)C3)O[C@@H]1CO2` was > 10 µM (inactive). On to `CN(C)C(=O)C[C@@H]1CC[C@@H]2[C@H](COC[C@H](O)CN2C(=O)C2CC2)O1`, for which the active concentration is > 10 µM (inactive). The value for `O=C(Nc1ccccc1)N1CC(=O)N2[C@H](C1)[C@@H](c1ccc(C#CC3CCCCC3)cc1)[C@@H]2CO` was > 10 µM (inactive); that for `COc1cccc(NC(=O)Nc2ccc3c(c2)C(=O)N(C)[C@H]2CC[C@@H](CC(=O)NCCc4ccccc4)O[C@H]2CO3)c1` was > 10 µM (inactive). In the case of `O=C(C[C@@H]1CC[C@H]2[C@@H](COC[C@H](O)CN2Cc2ccccc2)O1)NCCc1ccccc1` it was > 10 µM (inactive); in that of `O=C(C[C@@H]1CC[C@@H]2[C@H](COC[C@H](O)CN2C(=O)c2ccc(F)cc2)O1)NCc1cccc(F)c1`, > 10 µM (inactive). The value for `CCC(=O)N1[C@H](CO)[C@H](c2ccccc2)C12CN(C(=O)c1ccc3c(c1)OCO3)C2` was > 10 µM (inactive); that for `CN(C)CC(=O)N1CCCCN2[C@H](CO)[C@H](c3ccc(/C=C/c4ccccc4)cc3)[C@H]2C1` was less than 10 µM; that for `CCCN1[C@@H]2c3ccc(C4=CCCCC4)c(=O)n3C[C@@H]2[C@@H](CO)[C@@H]1C(=O)NC1Cc2ccccc2C1` was > 10 µM (inactive). Regarding `O=C(C[C@H]1CC[C@H]2[C@@H](COC[C@H](O)CN2Cc2cccc(F)c2)O1)NCc1cccc(F)c1`, the active concentration was > 10 µM (inactive). The value for `CCC(=O)N1CC(=O)N2[C@H](C1)[C@@H](c1ccc(-c3ccc(C#N)cc3)cc1)[C@@H]2CO` was > 10 µM (inactive); that for `O=S(=O)(c1cccs1)N1CCCCN2[C@@H](CO)[C@@H](c3ccc(/C=C/c4ccccc4)cc3)[C@@H]2C1` was > 10 µM (inactive). Turning to `O=C(c1ccccc1F)N1CC(=O)N2[C@H](CO)[C@@H](c3ccc(C#Cc4ccccc4)cc3)[C@H]2C1`, the active concentration is > 10 µM (inactive). The value for `CN1CCN(C(=O)C[C@@H]2CC[C@@H]3[C@H](COC[C@H](O)CN3CC3CC3)O2)CC1` was > 10 µM (inactive); that for `C/C=C/c1ccc([C@@H]2[C@H](CO)N(C(=O)CN(C)C)C23CN(C(=O)C2CCC2)C3)cc1` was > 10 µM (inactive). Regarding `Cc1ccccc1-c1ccccc1[C@@H]1[C@@H](C#N)N(C(=O)c2ccccc2)[C@H]1CO`, the active concentration was > 10 µM (inactive). Consider `CN(C)C(=O)c1cccc(-c2ccc([C@H]3[C@H]4CN(CC5CCOCC5)CCCCN4[C@H]3CO)cc2)c1`, for which the active concentration was > 10 µM (inactive). As to `O=C1CNC[C@H]2[C@@H](c3ccc(C4=CCCC4)cc3)[C@@H](CO)N12`, the active concentration was > 10 µM (inactive). In the case of `C/C=C/c1ccc2c(c1)[C@@H]1[C@@H](CCN1C(=O)Cc1cccnc1)[C@@H](CO)N2C` it was > 10 µM (inactive); in that of `O=S(=O)(c1ccccc1)N1CCCCN2[C@H](CO)[C@H](c3ccc(C#CC4CCCC4)cc3)[C@@H]2C1`, > 10 µM (inactive). The value for `C/C=C/c1ccccc1[C@@H]1[C@@H](C#N)N(C(C)=O)[C@@H]1CO` was > 10 µM (inactive). The value for `O=C(C[C@@H]1CC[C@H]2[C@@H](COC[C@@H](O)CN2S(=O)(=O)c2cccc(Cl)c2)O1)Nc1ccc(-c2ccccc2)cc1` was > 10 µM (inactive); that for `CCS(=O)(=O)N1CC2(C1)CN(S(=O)(=O)c1ccccc1)[C@H](CO)c1c2c2ccc(OC)cc2n1C` was > 10 µM (inactive). On to `O=C(C[C@@H]1CC[C@@H]2[C@H](COC[C@H](O)CN2Cc2nccs2)O1)NCc1ccccc1`, for which the active concentration was > 10 µM (inactive). For `COCC(=O)N1[C@H](CO)[C@H](c2ccccc2-c2ccccc2F)[C@@H]1C#N`, the active concentration is > 10 µM (inactive). With `O=C1CNC[C@@H]2[C@@H](c3ccc(-c4ccccc4F)cc3)[C@@H](CO)N12`, the active concentration is > 10 µM (inactive). On to `O=C(CC1CC1)N1[C@@H]2CN(S(=O)(=O)c3ccccc3F)c3ccccc3[C@@H]2[C@@H]1CO`, for which the active concentration was > 10 µM (inactive). In the case of `O=C(CN1CCOCC1)N1CCCCN2[C@H](CO)[C@@H](c3ccc(Br)cc3)[C@@H]2C1` it was > 10 µM (inactive); in that of `O=C(Nc1cc(F)ccc1F)N1CCCCN2[C@@H](CO)[C@@H](c3ccc(C4=CCCCC4)cc3)[C@@H]2C1`, > 10 µM (inactive). As to `OC[C@H]1[C@H]2c3ccccc3NC[C@H]2N1Cc1ccccc1Cl`, the active concentration is > 10 µM (inactive). The value for `COC(=O)c1ccc(CN2CC(=O)N3[C@H](CO)[C@@H](c4ccc(-c5cccnc5)cc4)[C@H]3C2)cc1` was > 10 µM (inactive); that for `O=C(c1cccnc1)N1C[C@H]2[C@@H](c3ccccc31)[C@H](CO)N2Cc1ccc2c(c1)OCO2` was > 10 µM (inactive). Regarding `O=C(C1CCCCC1)N1CC2(C1)[C@H](c1ccccc1)[C@@H](CO)N2C(=O)c1cccnc1`, the active concentration is > 10 µM (inactive). In the case of `Cc1ccccc1-c1ccccc1[C@H]1[C@@H](C#N)N(C(=O)c2cccc(F)c2)[C@H]1CO` it was > 10 µM (inactive); in that of `CCN1CC(=O)N2[C@@H](CO)[C@@H](c3ccc(Br)cc3)[C@@H]2C1`, > 10 µM (inactive). For `CCCN1[C@@H]2c3ccc(-c4cncnc4)c(=O)n3C[C@@H]2[C@@H](CO)[C@@H]1C(=O)OC`, the active concentration was > 10 µM (inactive). On to `COc1ccccc1NC(=O)N1C[C@@H]2[C@H](c3ccccc31)[C@@H](CO)N2C(C)=O`, for which the active concentration is > 10 µM (inactive). `COc1ccc(CN2[C@@H]3CNc4ccccc4[C@@H]3[C@@H]2CO)cc1`: the active concentration was > 10 µM (inactive). For the compound `O=C(C1CC1)N1CC2(C1)[C@H](c1ccccc1)[C@H](CO)N2Cc1nccs1`, the active concentration was > 10 µM (inactive). In the case of `Cc1nn(C)cc1NC(=O)C[C@@H]1CC[C@@H]2[C@H](COc3ccc(NC(=O)C4CCOCC4)cc3C(=O)N2C)O1` it was > 10 µM (inactive); in that of `O=C(C[C@@H]1CC[C@H]2[C@@H](COC[C@@H](O)CN2CC2CC2)O1)NCC1CC1`, > 10 µM (inactive); in that of `OC[C@H]1[C@H]2c3ccccc3NC[C@H]2N1Cc1cccnc1`, > 10 µM (inactive). In the case of `COCC(=O)N1[C@H](CO)[C@H]2c3ccccc3NC[C@H]21` it was > 10 µM (inactive). The value for `O=C(C[C@@H]1CC[C@H]2[C@@H](COC[C@@H](O)CN2C(=O)c2cccnc2)O1)NCc1ccccc1` was > 10 µM (inactive).

For the compound `CCN1[C@@H]2c3ccc(-c4ccccc4F)c(=O)n3C[C@H]1[C@H](CO)[C@H]2C(=O)NCc1ccc(F)cc1`, the active concentration is > 10 µM (inactive).

Turning to `CCS(=O)(=O)N1CC2(C1)[C@@H](c1ccccc1)[C@@H](CO)N2C(=O)c1ccccc1`, the active concentration was > 10 µM (inactive). As for `COc1cccc(-c2ccc3c(c2)[C@H]2[C@H](CCN2S(=O)(=O)c2cn(C)cn2)[C@H](CO)N3)c1`, the active concentration was > 10 µM (inactive). In the case of `O=C(C[C@H]1CC[C@@H]2[C@H](COC[C@@H](O)CN2Cc2cccc(F)c2)O1)NCc1cccc(F)c1` it was > 10 µM (inactive); in that of `CC(=O)N1CC[C@@H]2[C@H](CO)Nc3ccc(C#Cc4cccnc4)cc3[C@@H]21`, > 10 µM (inactive); in that of `CCCC(=O)N1CCC2(CC1)CN(Cc1ccc(Cl)cc1)[C@H](CO)c1[nH]c3cc(OC)ccc3c12`, > 10 µM (inactive). `CCNC(=O)[C@H]1[C@H](CO)[C@H]2Cn3c(ccc(-c4ccccc4)c3=O)[C@H]2N1CC`: the active concentration was > 10 µM (inactive). For the compound `O=C(CC1CC1)N1CC(=O)N2[C@@H](CO)[C@H](c3ccc(C#Cc4cccc(F)c4)cc3)[C@@H]2C1`, the active concentration was > 10 µM (inactive).

Regarding `N#C[C@H]1[C@H](c2ccccc2-c2ccccc2F)[C@@H](CO)N1C(=O)C1CCC1`, the active concentration was > 10 µM (inactive). In the case of `O=C(c1cccnc1)N1C[C@H]2[C@@H](c3ccccc31)[C@H](CO)N2C(=O)CN1CCOCC1` it was less than 10 µM; in that of `OC[C@@H]1[C@H]2c3ccccc3NC[C@H]2N1CC1CCOCC1`, > 10 µM (inactive); in that of `O=C(C[C@H]1CC[C@@H]2[C@H](COC[C@@H](O)CN2C(=O)c2ccncc2)O1)NCc1ccc(-c2ccccc2)cc1`, > 10 µM (inactive). For the compound `O=C(Nc1ccc(F)cc1)N1[C@@H](CO)[C@@H]2c3ccccc3NC[C@@H]21`, the active concentration is > 10 µM (inactive).

Regarding `COc1ccc2c3c([nH]c2c1)[C@H](CO)N(C(=O)C1CCOCC1)CC31CN(C(=O)NC(C)C)C1`, the active concentration was > 10 µM (inactive).

Regarding `Cc1ccc(CN2CC(=O)N3[C@H](C2)[C@@H](c2ccc(-c4ccccc4F)cc2)[C@@H]3CO)cc1`, the active concentration is > 10 µM (inactive).
